Tests used:
08HNG cells [1] = assay: pH2AX foci 24 h after contacting, 08HNG; format: cell-based, human
Procedure: (§1) In one embodiment, on receipt, the tissue sample (typically the biopsy) is established in the form of an amplifiable cell line without a viral or chemical transformation agent according to an ancillary procedure well known to culture laboratories, as underlined by the publication of Elkind et al. “The radiobiology of cultured mammalian cell”, Gordon and Breach (1967). Once the number of cells is sufficient (typically after 1 to 3 weeks), the first experiments are carried out using the process according to the invention. A cell sample is prepared: The cells are inoculated on glass coverslips in Petri dishes. A portion of these coverslips are contaminated with metals or pesticides or any other DNA-breaking chemical or biochemical agent at different concentrations. A further portion is not contaminated; it represents the spontaneous state. During contamination, the cells remain in the culture incubator at 37° C.
For the contaminated cells, characteristics are acquired corresponding to the state after an incubation time with the DNA-breaking chemical or biochemical agent. Said characteristics are represented by foci corresponding to the marker pH2AX. The cells on glass coverslips are then fixed, lysed and hybridized. The following procedure, known per se (Bodgi et al, “A single formula to describe radiation-induced protein relocalization: towards a mathematical definition of individual radiosensitivity”, J Theor Biol. 21 p 333:135-45.2013):
the cells are fixed in 3% paraformaldehyde and 2% sucrose for 15 minutes at ambient temperature and permeabilized in 20 mM HEPES buffer solution (4-(2-hydroxyethyl)-1-piperazine ethane sulfonic acid) at pH 7.4, 50 mM NaCl, 3 mM MgCl2, 300 mM sucrose, 0.5% Triton X-100 (a non-ionic surfactant having the formula t-Oct-C6H4-(OCH2CH2)×OH where x=9-10, CAS No. 9002-93-1, supplied for example by Sigma Aldrich) for 3 minutes. The glass coverslips are then washed in phosphate buffer saline (known as the acronym PBS) before immunological staining. The incubation took place for 40 min at 37° C. in PBS supplemented with 2% bovine serum albumin (known as the acronym BSA or fraction V, supplied for example by Sigma Aldrich) and was followed by a wash with PBS. Anti-pH2AX primary antibodies are used at a concentration of 1:800. […]
The results are acquired using these coverslips on an immunofluorescence microscope (Olympus model for example). The reading may be direct (typically by counting the foci on at least 50 cells in G0/G1 for each point) or using dedicated image analysis software, or on an automated microscope; preferably the software or automated microscope methods are calibrated with manual determinations. […]

08HNG cells [2] = assay: Micronuclei per 100 cells 24 h after contacting, 08HNG; format: cell-based, human
Procedure: as §1
the cells are fixed in 3% paraformaldehyde and 2% sucrose for 15 minutes at ambient temperature and permeabilized in 20 mM HEPES buffer solution (4-(2-hydroxyethyl)-1-piperazine ethane sulfonic acid) at pH 7.4, 50 mM NaCl, 3 mM MgCl2, 300 mM sucrose, 0.5% Triton X-100 (a non-ionic surfactant having the formula t-Oct-C6H4-(OCH2CH2)×OH where x=9-10, CAS No. 9002-93-1, supplied for example by Sigma Aldrich) for 3 minutes. The glass coverslips are then washed in phosphate buffer saline (known as the acronym PBS) before immunological staining. The incubation took place for 40 min at 37° C. in PBS supplemented with 2% bovine serum albumin (known as the acronym BSA or fraction V, supplied for example by Sigma Aldrich) and was followed by a wash with PBS. Anti-pH2AX primary antibodies are used at a concentration of 1:800. The incubations with anti-mouse FITC or anti-rabbit TRITC secondary antibodies (1:100, supplied by Sigma Aldrich) were performed at 37° C. in 2% BSA for 20 minutes. Glass coverslips were treated with Vectashield™ containing DAPI (4,6-Diamidino-2-phenylindole) to label the nucleus. Staining with DAPI also makes it possible, indirectly, to determine the number of cells in phase G1 (nuclei with homogenous DAPI staining), in phase S (nuclei with numerous pH2AX foci), in phase G2 (nuclei with heterogeneous DAPI staining) and metaphases (visible chromosomes).
Counterstaining with DAPI (a DNA marker known to those skilled in the art) makes it possible to locate the nucleus to situate the cytoplasmic or nuclear location to quantify the micronuclei, which are complementary cell markers to the data on the foci.
The tables hereinafter summarize the results of numerous experiments which were carried out as described in the “Detailed description” section above. […]

For c1ccc2[nH]c(-c3cscn3)nc2c1 [Thiobendazole], the pH2AX (08HNG cells [1]; 0.3 μM) was 1.8 foci, the pH2AX (08HNG cells [1]; 1 μM) was 2 foci and the pH2AX (08HNG cells [1]; 3 μM) was 4.3 foci. For the same molecule, the pH2AX (08HNG cells [1]; 10 μM) was 6 foci, the Micronuclei (08HNG cells [2]; 0.3 μM) was 2 per 100 cells and the Micronuclei (08HNG cells [2]; 1 μM) was 4 per 100 cells. The Micronuclei (08HNG cells [2]; 3 μM) was 10 per 100 cells and the Micronuclei (08HNG cells [2]; 10 μM) was 10 per 100 cells.

From patent publication US20180238860A1, “INDIVIDUAL METHOD PREDICTIVE OF THE DNA-BREAKING GENOTOXIC EFFECTS OF CHEMICAL OR BIOCHEMICAL AGENTS” (priority 2015, published 2018)
